In ChEMBL document CHEMBL1201862, “PubChem BioAssay data set” (2004):
Activity calls are given as the source filed them.

Tests used:
[1] = Luminescence Cell-Based Dose Response HTS to Identify Inhibitors of 5'UTR Stem-Loop Driven Prion Protein mRNA Translation in H4 Neuroglioblastoma Cells. [Related pubchem assays: 1827 (Project Summary), 1813 (Primary HTS)]; type: functional
SUMO-activating enzyme = SUMO-activating enzyme (Homo sapiens, UniProt Q9UBT2); experiment: SUMOylation inhibitor hit validation, confirmation, SUMOylation inhibitor project, biochemical, AlphaScreen (AID 2018); type: functional
Sequence of SUMO-activating enzyme (Q9UBE0 whole entry): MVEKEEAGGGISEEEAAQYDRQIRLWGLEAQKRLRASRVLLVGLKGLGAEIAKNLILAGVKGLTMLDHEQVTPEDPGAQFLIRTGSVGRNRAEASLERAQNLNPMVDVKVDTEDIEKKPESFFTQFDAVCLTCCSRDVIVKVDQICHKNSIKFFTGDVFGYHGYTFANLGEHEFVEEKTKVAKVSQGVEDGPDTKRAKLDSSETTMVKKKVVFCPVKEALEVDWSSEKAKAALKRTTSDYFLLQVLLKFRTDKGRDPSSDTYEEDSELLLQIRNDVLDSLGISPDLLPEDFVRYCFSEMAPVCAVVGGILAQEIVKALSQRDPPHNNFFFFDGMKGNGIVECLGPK
Sequence of SUMO-activating enzyme (Q9UBT2 whole entry): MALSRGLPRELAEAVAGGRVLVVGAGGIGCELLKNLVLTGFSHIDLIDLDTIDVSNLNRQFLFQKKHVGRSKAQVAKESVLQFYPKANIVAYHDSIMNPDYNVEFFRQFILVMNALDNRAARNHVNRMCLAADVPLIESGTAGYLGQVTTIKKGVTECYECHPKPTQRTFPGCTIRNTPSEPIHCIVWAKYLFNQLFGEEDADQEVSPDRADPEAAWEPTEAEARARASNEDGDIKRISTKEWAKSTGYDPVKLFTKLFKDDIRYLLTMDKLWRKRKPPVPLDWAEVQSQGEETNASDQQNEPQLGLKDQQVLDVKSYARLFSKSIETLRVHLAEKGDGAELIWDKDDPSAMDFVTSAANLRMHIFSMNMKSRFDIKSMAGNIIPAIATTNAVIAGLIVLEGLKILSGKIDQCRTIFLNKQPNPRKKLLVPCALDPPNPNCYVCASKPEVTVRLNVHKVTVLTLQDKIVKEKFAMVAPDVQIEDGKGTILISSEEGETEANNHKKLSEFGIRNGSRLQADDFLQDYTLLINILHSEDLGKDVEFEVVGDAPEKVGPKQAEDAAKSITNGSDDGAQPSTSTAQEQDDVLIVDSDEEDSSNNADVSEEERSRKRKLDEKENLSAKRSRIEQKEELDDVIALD

| SMILES | EC50 [1] | IC50 (SUMO-activating enzyme) |
| --- | --- | --- |
| CC(C)(C)c1cc[n+](C2=C([N-]S(=O)(=O)c3ccccc3)C(=O)c3ccccc3C2=O)cc1 | 25 µM (active) | – |
| O=C1C=C(Nc2ccccc2C(=O)O)c2ccccc2C1=O | – | 1.9 µM (active) |
